Results: the OligoGym collection
Where “and” joins values, the source holds several entries; their conditions need not be identical. Equal values may be shown once. After the bases stand the sugars from the 5' end (letter, count) and the backbone: PS all phosphorothioate, else s phosphorothioate and o phosphodiester by linkage. Methylation of C is not given here. k = constrained ethyl (cEt); d = 2'-deoxy (DNA)

Target: MALAT1
Details: ASO, A431, 0.005 µM

Sequence | target mRNA inhibition
CACCACGAACTGCTGC (sugars k3 d10 k3, PS) | 19%
CACCCAGAAGTGTTTA (sugars k3 d10 k3, PS) | -4%
CACCGGAATTCGATCA (sugars k3 d10 k3, PS) | 20%
CACCTTCCGCCGCCTC (sugars k3 d10 k3, PS) | 28%
CACCTTCCGCCGCCTT (sugars k3 d10 k3, PS) | -25%
CACCTTCGGTTTAATC (sugars k3 d10 k3, PS) | 20%
CACCTTGAGTCATTTG (sugars k3 d10 k3, PS) | 37%
CACTACCATATCCAAA (sugars k3 d10 k3, PS) | 23%
CACTTATCCCTAACAT (sugars k3 d10 k3, PS) | 10%
CACTTTCCTTGCCCAA (sugars k3 d10 k3, PS) | 69% and 61%
CAGACCTGAAGTCAAG (sugars k3 d10 k3, PS) | 14%
CAGCTTATGGAACTTG (sugars k3 d10 k3, PS) | -33%
CAGGATCATTAAGCCA (sugars k3 d10 k3, PS) | 42%
CAGGCGAGCTGAGGCT (sugars k3 d10 k3, PS) | 7%
CAGGTCATCTATTCAC (sugars k3 d10 k3, PS) | 51% and 72%
CAGTACGAAACTCCCC (sugars k3 d10 k3, PS) | 30%
CAGTCCTAGCTTCATC (sugars k3 d10 k3, PS) | 9%
CAGTCCTTTTAGTAGC (sugars k3 d10 k3, PS) | 57%
CATAGTTCAACCCACC (sugars k3 d10 k3, PS) | 35%
CATATTTAACTTCCCC (sugars k3 d10 k3, PS) | 25%
CATCAAGGATGTATAT (sugars k3 d10 k3, PS) | -4%

Sequence | target mRNA inhibition
CATCAGAAGAAATCCC (sugars k3 d10 k3, PS) | 17%
CATGGAAAGCGAGTTC (sugars k3 d10 k3, PS) | 20%
CATTAAAGAGTGTTCG (sugars k3 d10 k3, PS) | 34%
CATTCTAATAGCAGCG (sugars k3 d10 k3, PS) | 51% and 68%
CATTTCTCCAATGGAC (sugars k3 d10 k3, PS) | 12%
CATTTTGCCCTTAGCT (sugars k3 d10 k3, PS) | 54%
CCAAAGACCTCGACAC (sugars k3 d10 k3, PS) | 13%
CCAAATTGCACTCGCT (sugars k3 d10 k3, PS) | 36%
CCAAGACAGCCACACG (sugars k3 d10 k3, PS) | 10%
CCAATGGACATCTCTT (sugars k3 d10 k3, PS) | 40%
CCACACACTACCATAT (sugars k3 d10 k3, PS) | 17%
CCACAGGAACAAGTCC (sugars k3 d10 k3, PS) | -5%
CCACCAATCCCAACCG (sugars k3 d10 k3, PS) | 26%
CCACGAACTGCTGCTT (sugars k3 d10 k3, PS) | 54%
CCACTGGTGAATTCAA (sugars k3 d10 k3, PS) | 55%
CCACTTACTGGTTTAA (sugars k3 d10 k3, PS) | 33%
CCAGCAAAATGTACTC (sugars k3 d10 k3, PS) | 46%
CCAGCATTACAGTTCT (sugars k3 d10 k3, PS) | 42%
CCAGGATTAATGTAGT (sugars k3 d10 k3, PS) | 71% and 55%
CCAGTAGGCCAGACCA (sugars k3 d10 k3, PS) | 13%
CCATCATACTGCCAGG (sugars k3 d10 k3, PS) | 17%

Sequence | target mRNA inhibition
CCATGGTTGTCCTACT (sugars k3 d10 k3, PS) | 10%
CCCAACTGCTTGCAGT (sugars k3 d10 k3, PS) | 9%
CCCAAGATTGCCCCAA (sugars k3 d10 k3, PS) | -7%
CCCAATGGAGGTATGA (sugars k3 d10 k3, PS) | 23%
CCCCAACTAAACATAC (sugars k3 d10 k3, PS) | 26%
CCCCCAACTGCTTGCA (sugars k3 d10 k3, PS) | 29%
CCCCCCAAGATTGCCC (sugars k3 d10 k3, PS) | 14%
CCCCCGGAACTTTTAA (sugars k3 d10 k3, PS) | -12%
CCCCGGAACTTTTAAA (sugars k3 d10 k3, PS) | 23%
CCCGCCTCAGTTACAC (sugars k3 d10 k3, PS) | 4%
CCCTACTGAAGAGCAT (sugars k3 d10 k3, PS) | 13%
CCCTGTTAAGACCATC (sugars k3 d10 k3, PS) | 21%
CCCTTTACACCTCAGT (sugars k3 d10 k3, PS) | 25%
CCGACCTCACGGATTT (sugars k3 d10 k3, PS) | 39%
CCGCACAGCTCGGGCG (sugars k3 d10 k3, PS) | 14%
CCGCCGCCTTTGTGAG (sugars k3 d10 k3, PS) | 25%
CCGGAACTTTTAAAAT (sugars k3 d10 k3, PS) | 13%
CCGTAACAGGCCACTG (sugars k3 d10 k3, PS) | 30%
CCGTTGGCTGCCAGTG (sugars k3 d10 k3, PS) | 6%
CCTAACATGCAATACT (sugars k3 d10 k3, PS) | 12%
CCTAGCTTCACCACCA (sugars k3 d10 k3, PS) | 33%

Sequence | target mRNA inhibition
CCTATCTTCACCACGA (sugars k3 d10 k3, PS) | 6%
CCTGAAGTCAAGACAA (sugars k3 d10 k3, PS) | 0%
CCTGCGACTTGCTCCC (sugars k3 d10 k3, PS) | 20%
CCTGTGGTGGTCTGAT (sugars k3 d10 k3, PS) | 54%
CCTTATTTAGAGGGCC (sugars k3 d10 k3, PS) | 33%
CCTTCGGTGCCTTTAG (sugars k3 d10 k3, PS) | 12%
CCTTTACACCTCAGTA (sugars k3 d10 k3, PS) | 13%
CCTTTTAAAGTAGACC (sugars k3 d10 k3, PS) | -22%
CCTTTTCTAACATAGT (sugars k3 d10 k3, PS) | 23%
CGAAGACACAGAGACC (sugars k3 d10 k3, PS) | 10%
CGAGTTCAAGTGGCCT (sugars k3 d10 k3, PS) | 18%
CGCAATTCTCCCTGCG (sugars k3 d10 k3, PS) | 23%
CGCACTGGCTCCTGGA (sugars k3 d10 k3, PS) | 49%
CGCCAACACAGTTTGC (sugars k3 d10 k3, PS) | 12%
CGCCTGCTACCTTCAT (sugars k3 d10 k3, PS) | 30%
CGCTTTCCCTGTGGCC (sugars k3 d10 k3, PS) | -2%
CGGAAATTTTTCTACC (sugars k3 d10 k3, PS) | 8%
CGGAATTCGATCACCT (sugars k3 d10 k3, PS) | 19%
